Results on five molecules are retold here after PMC4330097, “Competitive Binding of a Benzimidazole to the Histone-Binding Pocket of the Pygo PHD Finger” (ACS Chemical Biology, 2014).

No end group written: not given here. Me2 = dimethyl on the lysine side chain (dimethyllysine)

Experiment [1] addresses T1, Pygo2 PHD finger (PHD–HD1 complex) (Homo sapiens, UniProt Q9BRQ0).
T1 sequence (Q9BRQ0 327-387): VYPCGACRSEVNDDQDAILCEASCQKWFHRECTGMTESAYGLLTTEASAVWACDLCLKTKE
T1 sequence (Q86UU0 235-263 partner): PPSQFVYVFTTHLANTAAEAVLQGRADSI
Nature of the experiment: biochemical. Also on record: PHD–HD1 complex; with B9L HD1 (BCL9L); 15N-HSQC NMR titration of 15N-labelled PHD-HD1; Kd from chemical shift perturbations. An excerpt: […]. […] Nevertheless, we asked whether CF16 could compete with a native histone H3 tail peptide for binding to the PHD–HD1 complex.

Experiment [2] has as its target T1, Pygo2 PHD finger (PHD–HD1 complex). Nature of the experiment: HSQC NMR titration, intermolecular NOEs, NMR competition with H3 peptide. The class given is binding. Also on record: with B9L HD1 (BCL9L). An excerpt:
HSQC NMR titration, intermolecular NOEs, NMR competition with H3 peptide on Pygo2 PHD finger (PHD–HD1 complex) | estimated affinities of CF16 and CF18 for the K4me pocket appear to be lower

For experiment [3] the target is unchanged. Put plainly: HSQC NMR chemical shift perturbation. Further details: PHD–HD1 complex; with B9L HD1 (BCL9L). The class given is binding.
The target is the same in experiment [4]. Put plainly: HSQC NMR titration, intermolecular NOEs. The class given is binding. Also on record: with B9L HD1 (BCL9L).
Experiment [5] concerns the target T2, histone H3 tail pentapeptide ARTKme2Q (Homo sapiens).
T2 chain: ARTK(Me2)Q
Nature of the experiment: NMR HSQC titration.

Usually Kd stands for the free concentration of one partner at which half of the binding sites on the other are occupied at equilibrium, for simple one-to-one binding.

As for `Nc1nc2cc3c(cc2s1)OCCO3` [CF7], in experiment [1], the Kd was found to be 2.9 mM.

Regarding `CCn1c(N)nc2ccccc21` [CF16], in experiment [2], the Kd is about 7.3 mM.

With `CCn1c(NCCN2CCOCC2)nc2ccccc21` [CF17], the “HSQC NMR chemical shift perturbation” value in experiment [3] was “CF14, CF16, and CF17 produced altogether distinct CSP patterns”.

In turn, `CN(C)CCn1c(N)nc2ccccc21` [CF18] registered a Kd in experiment [4] of about 14.7 mM.

B1: Pygo2 PHD–B9L HD1 complex 327-387+235-263 (protein)
chain 1: AASAPPPPDKLEGGGGPAPPPAPPSTGRKQGKAGLQMKSPEKKRRKSNTQGPAYSHLTEFAPPPTPMVDHLVASNPFEDDFGAPKVGVAAPPFLGSPVPFGGFRVQGGMAGQVPPGYSTGGGGGPQPLRRQPPPFPPNPMGPAFNMPPQGPGYPPPGNMNFPSQPFNQPLGQNFSPPSGQMMPGPVGGFGPMISPTMGQPPRAELGPPSLSQRFAQPGAPFGPSPLQRPGQGLPSLPPNTSPFPGPDPGFPGPGGEDGGKPLNPPASTAFPQEPHSGSPAAAVNGNQPSFPPNSSGRGGGTPDANSLAPPGKAGGGSGPQPPPGLVYPCGACRSEVNDDQDAILCEASCQKWFHRECTGMTESAYGLLTTEASAVWACDLCLKTKEIQSVYIREGMGQLVAANDG
chain 2: MRILANKTRLPHPRRREAPGSPPLSPRGHCPPAPAKPMHPENKLTNHGKTGNGGAQSQHQNVNQGPTCNVGSKGVGAGNHGAKANQISPSNSSLKNPQAGVPPFSSLKGKVKRDRSVSVDSGEQREAGTPSLDSEAKEVAPRSKRRCVLERKQPYSGDEWCSGPDSEEDDKPIGATHNCNVADPAMAAPQLGPGQTTQLPLSESSVPGAPHGPPPGLRPDAPGGGGGGGGVPGKPPSQFVYVFTTHLANTAAEAVLQGRADSILAYHQQNVPRAKLDQAPKVPPTPEPLPLSTPSAGTPQSQPPPLPPPPPPAPGSAPPALPPEGPPEDSSQDLAPNSVGAASTGGGTGGTHPNTPTATTANNPLPPGGDPSSAPGPALLGEAAAPGNGQRSLVGSEGLSKEQLEHRERSLQTLRDIERLLLRSGETEPFLKGPPGGAGEGGPPAQAPPPPQQPPTAPPSGLKKYEEPLQSMISQTQSLGGPPLEHEVPGHPPGGDMGQQMNMMIQRLGQDSLTPEQVAWRKLQEEYYEEKRRKEEQIGLHGSRPLQDMMGMGGMMVRGPPPPYHSKPGDQWPPGMGAQLRGPMDVQDPMQLRGGPPFPGPRFPGNQIQRVPGFGGMQSMPMEVPMNAMQRPVRPGMGWTEDLPPMGGPSNFAQNTMPYPGGQGEAERFMTPRVREELLRHQLLEKRSMGMQRPLGMAGSGMGQSMEMERMMQAHRQMDPAMFPGQMAGGEGLAGTPMGMEFGGGRGLLSPPMGQSGLREVDPPMGPGNLNMNMNVNMNMNMNLNVQMTPQQQMLMSQKMRGPGDLMGPQGLSPEEMARVRAQNSSGVMGGPQKMLMPSQFPNQGQQGFSGGQGPYQAMSQDMGNTQDMFSPDQSSMPMSNVGTTRLSHMPLPPASNPPGTVHSAPNRGLGRRPSDLTISINQMGSPGMGHLKSPTLSQVHSPLVTSPSANLKSPQTPSQMVPLPSANPPGPLKSPQVLGSSLSVRSPTGSPSRLKSPSMAVPSPGWVASPKTAMPSPGVSQNKQPPLNMNSSTTLSNMEQGTLPPSGPRSSSSAPPANPPSGLMNPSLPFTSSPDPTPSQNPLSLMMTQMSKYAMPSSTPLYHNAIKTIATSDDELLPDRPLLPPPPPPQGSGPGISNSQPSQMHLNSAAAQSPMGMNLPGQQPLSHEPPPAMLPSPTPLGSNIPLHPNAQGTGGPPQNSMMMAPGGPDSLNAPCGPVPSSSQMMPFPPRLQQPHGAMAPTGGGGGGPGLQQHYPSGMALPPEDLPNQPPGPMPPQQHLMGKAMAGRMGDAYPPGVLPGVASVLNDPELSEVIRPTPTGIPEFDLSRIIPSEKPSSTLQYFPKSENQPPKAQPPNLHLMNLQNMMAEQTPSRPPNLPGQQGVQRGLNMSMCHPGQMSLLGRTGVPPQQGMVPHGLHQGVMSPPQGLMTQQNFMLMKQRGVGGEVYSQPPHMLSPQGSLMGPPPQQNLMVSHPLRQRSVSLDSQMGYLPAPGGMANLPF
In experiment [5], B1 had a Kd of 0.528 mM.
